Laboratory results taken from ChEMBL document CHEMBL1201862, “PubChem BioAssay data set” (2004).
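Growth conditions: 96-well plates. Treatment: test compound, 48 hours, 5 concentrations. Analysis: linear interpolation between bracketing concentrations; unreached endpoints set to highest concentration. At the GI50, growth is halved.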 Activity calls are given as the source filed them. Rule as the data show it: active = GI50 up to about 1.1 µM and inactive = higher.

Experiments:
Experiment in all cases: NCI-60 cell line screen, 48 h
[1] = test system: CCRF-CEM
[2] = test system: COLO 205
[3] = test system: HCC 2998
[4] = test system: HOP-92
[5] = test system: IGROV-1
[6] = test system: K562
[7] = test system: MDA-MB-231
[8] = test system: MDA-MB-435
[9] = test system: NCI-H23
[10] = test system: OVCAR-3
[11] = test system: OVCAR-8
[12] = test system: PC-3
[13] = test system: RXF 393
[14] = test system: SF-268
[15] = test system: SK-MEL-5
[16] = test system: SN12C
[17] = test system: SNB-19
[18] = test system: SNB-75

Row | Structure (SMILES) | GI50 [1] | GI50 [2] | GI50 [3] | GI50 [4] | GI50 [5] | GI50 [6] | GI50 [7] | GI50 [8] | GI50 [9] | GI50 [10] | GI50 [11] | GI50 [12] | GI50 [13] | GI50 [14] | GI50 [15] | GI50 [16] | GI50 [17] | GI50 [18]
1 | COc1c(O)ccc2c1CN1CCc3cc4c(cc3C1C2)OCO4 (configuration not stated) | 30.8 µM (inactive) | 36.1 µM (inactive) | 31.6 µM (inactive) | 51.8 µM (inactive) | 28.6 µM (inactive) | 20 µM (inactive) | 29.3 µM (inactive) | 21.8 µM (inactive) | 36.2 µM (inactive) | 26.4 µM (inactive) | 33.9 µM (inactive) | 23.4 µM (inactive) | 12.6 µM (inactive) | 37 µM (inactive) | 35 µM (inactive) | 27.7 µM (inactive) | 31.3 µM (inactive) | 14.5 µM (inactive)
2 | O=C(CC(=O)N1N=C(N2CCCCC2)CC1c1ccccc1)Nc1ccccc1 (configuration not stated) | > 100 µM (inactive) | > 100 µM (inactive) | > 100 µM (inactive) | 91 µM (inactive) | > 100 µM (inactive) | – | > 100 µM (inactive) | > 100 µM (inactive) | > 100 µM (inactive) | > 100 µM (inactive) | > 100 µM (inactive) | > 100 µM (inactive) | > 100 µM (inactive) | > 100 µM (inactive) | > 100 µM (inactive) | > 100 µM (inactive) | > 100 µM (inactive) | > 100 µM (inactive)
3 | CSC(=S)Nc1cccc(C)n1 | > 100 µM (inactive) | > 100 µM (inactive) | > 100 µM (inactive) | > 100 µM (inactive) | > 100 µM (inactive) | > 100 µM (inactive) | > 100 µM (inactive) | > 100 µM (inactive) | > 100 µM (inactive) | 52.4 µM (inactive) | > 100 µM (inactive) | > 100 µM (inactive) | > 100 µM (inactive) | > 100 µM (inactive) | 76.6 µM (inactive) | > 100 µM (inactive) | > 100 µM (inactive) | > 100 µM (inactive)
4 | CCOC(=O)C(Cc1ccc(O)cc1)Nc1nc(=O)c2c(=O)oc(Cl)cc2o1 (configuration not stated) | 2.7 µM (inactive) | 8.49 µM (inactive) | 6.59 µM (inactive) | 7.31 µM (inactive) | 5.09 µM (inactive) | 3.06 µM (inactive) | 6.1 µM (inactive) | 4.52 µM (inactive) | 10.9 µM (inactive) | 6.78 µM (inactive) | 3.39 µM (inactive) | 8.93 µM (inactive) | 4.38 µM (inactive) | 3.82 µM (inactive) | 8.15 µM (inactive) | 6.28 µM (inactive) | 10.8 µM (inactive) | 4.91 µM (inactive)
5 | CNC1Cc2c[nH]c3cccc(c23)C12C=C(C)C(=O)O2 (configuration not stated) | > 100 µM (inactive) | > 100 µM (inactive) | > 100 µM (inactive) | > 100 µM (inactive) | > 100 µM (inactive) | > 100 µM (inactive) | > 100 µM (inactive) | > 100 µM (inactive) | > 100 µM (inactive) | > 100 µM (inactive) | > 100 µM (inactive) | > 100 µM (inactive) | > 100 µM (inactive) | > 100 µM (inactive) | > 100 µM (inactive) | > 100 µM (inactive) | > 100 µM (inactive) | > 100 µM (inactive)
6 | O=C(CN1CCCCC1)CC(O)(C(F)(F)F)C(F)(F)F | > 100 µM (inactive) | > 100 µM (inactive) | > 100 µM (inactive) | > 100 µM (inactive) | > 100 µM (inactive) | > 100 µM (inactive) | > 100 µM (inactive) | > 100 µM (inactive) | > 100 µM (inactive) | > 100 µM (inactive) | > 100 µM (inactive) | > 100 µM (inactive) | > 100 µM (inactive) | – | > 100 µM (inactive) | – | > 100 µM (inactive) | 20.5 µM (inactive)
7 | C[N+]12C=CC=C1C(N1CCCC1)c1scc(-c3ccc(Br)cc3)c12 (configuration not stated) | 18.2 µM (inactive) | 12.5 µM (inactive) | 12.4 µM (inactive) | 12 µM (inactive) | 4.58 µM (inactive) | 6.7 µM (inactive) | 23.9 µM (inactive) | 24 µM (inactive) | 3.49 µM (inactive) | 6.38 µM (inactive) | 4.11 µM (inactive) | 21 µM (inactive) | 10.2 µM (inactive) | 3.15 µM (inactive) | 4.68 µM (inactive) | 3.02 µM (inactive) | 4.22 µM (inactive) | 3.1 µM (inactive)
8 | NCCCNc1ccc2c(c1)[n+]([O-])c1ccccc1[n+]2[O-] | 22.4 µM (inactive) | 18.3 µM (inactive) | 23.2 µM (inactive) | 12.7 µM (inactive) | 12.7 µM (inactive) | 26.4 µM (inactive) | 19.9 µM (inactive) | 31.8 µM (inactive) | 35.5 µM (inactive) | 19.8 µM (inactive) | 31.5 µM (inactive) | 27.4 µM (inactive) | 20.1 µM (inactive) | 27.1 µM (inactive) | 15.2 µM (inactive) | 26 µM (inactive) | 28.3 µM (inactive) | –
9 | COC(=O)c1cn(CCCCO)nn1 | > 100 µM (inactive) | > 100 µM (inactive) | > 100 µM (inactive) | > 100 µM (inactive) | > 100 µM (inactive) | – | > 100 µM (inactive) | > 100 µM (inactive) | > 100 µM (inactive) | – | > 100 µM (inactive) | > 100 µM (inactive) | > 100 µM (inactive) | > 100 µM (inactive) | > 100 µM (inactive) | > 100 µM (inactive) | > 100 µM (inactive) | > 100 µM (inactive)
10 | Nc1nc(S)c2c(N)n[nH]c2c1C(=O)Nc1ccccc1 | – | > 100 µM (inactive) | > 100 µM (inactive) | > 100 µM (inactive) | > 100 µM (inactive) | > 100 µM (inactive) | > 100 µM (inactive) | 42 µM (inactive) | > 100 µM (inactive) | > 100 µM (inactive) | > 100 µM (inactive) | > 100 µM (inactive) | > 100 µM (inactive) | > 100 µM (inactive) | > 100 µM (inactive) | > 100 µM (inactive) | > 100 µM (inactive) | > 100 µM (inactive)
11 | CC1=C2C(=O)c3ccccc3C(=O)[C@H]2[C@H]2CCO[C@H]2O1 | 25.4 µM (inactive) | 42.2 µM (inactive) | 19.4 µM (inactive) | 20 µM (inactive) | 14.2 µM (inactive) | 27.4 µM (inactive) | 24.2 µM (inactive) | 20.7 µM (inactive) | 20.1 µM (inactive) | 19.1 µM (inactive) | 20.4 µM (inactive) | 30.3 µM (inactive) | 14.4 µM (inactive) | 17.7 µM (inactive) | 15.6 µM (inactive) | 20.9 µM (inactive) | 37 µM (inactive) | 19.8 µM (inactive)
12 | COC(=O)c1cncc2c1CC1C3(C(=O)OC)C=NC(C4C(CO)=CCC43)C21C (configuration not stated) | > 100 µM (inactive) | > 100 µM (inactive) | > 100 µM (inactive) | > 100 µM (inactive) | > 100 µM (inactive) | – | > 100 µM (inactive) | > 100 µM (inactive) | > 100 µM (inactive) | – | > 100 µM (inactive) | > 100 µM (inactive) | > 100 µM (inactive) | > 100 µM (inactive) | > 100 µM (inactive) | > 100 µM (inactive) | > 100 µM (inactive) | 83.4 µM (inactive)
13 | Cc1csc2[n+]1C(=O)/C(=C\c1ccc([N+](=O)[O-])cc1)S2 | 43.1 µM (inactive) | 19.7 µM (inactive) | 21.6 µM (inactive) | 19.4 µM (inactive) | – | 26.8 µM (inactive) | 27.3 µM (inactive) | 24.9 µM (inactive) | 18.7 µM (inactive) | 15.3 µM (inactive) | 22.4 µM (inactive) | 25.4 µM (inactive) | 29 µM (inactive) | 20.3 µM (inactive) | 26.2 µM (inactive) | 37.4 µM (inactive) | 25.4 µM (inactive) | 20.3 µM (inactive)
14 | N#Cc1c(-c2ccccc2)cc(Nc2ccc(F)cc2)n2c1nc1ccccc12 | – | 1.58 µM (inactive) | 3.75 µM (inactive) | 1.01 µM (active) | 4.12 µM (inactive) | 5.61 µM (inactive) | 3.83 µM (inactive) | 3.11 µM (inactive) | 3.18 µM (inactive) | 3.13 µM (inactive) | 3.12 µM (inactive) | 1.83 µM (inactive) | 2.66 µM (inactive) | 3.72 µM (inactive) | 1.24 µM (inactive) | 2.02 µM (inactive) | 3.14 µM (inactive) | 1.72 µM (inactive)
15 | CC1(C)OC1COc1c2occc2cc2ccc(=O)oc12 (configuration not stated) | > 100 µM (inactive) | > 100 µM (inactive) | > 100 µM (inactive) | > 100 µM (inactive) | > 100 µM (inactive) | > 100 µM (inactive) | > 100 µM (inactive) | > 100 µM (inactive) | > 100 µM (inactive) | > 100 µM (inactive) | 60.5 µM (inactive) | > 100 µM (inactive) | > 100 µM (inactive) | > 100 µM (inactive) | 86.3 µM (inactive) | > 100 µM (inactive) | > 100 µM (inactive) | > 100 µM (inactive)
16 | CC(C)Cc1cc2c(cc1O)CCC1C2CC[C@@]2(C)C1CC[C@@H]2O (some centres not stated) | 7.91 µM (inactive) | 15.2 µM (inactive) | 13.1 µM (inactive) | 10.2 µM (inactive) | 15.1 µM (inactive) | 3.83 µM (inactive) | 7.59 µM (inactive) | 11.6 µM (inactive) | 8.39 µM (inactive) | 5.57 µM (inactive) | 6.35 µM (inactive) | 6.35 µM (inactive) | 4.35 µM (inactive) | 10.8 µM (inactive) | 7.45 µM (inactive) | 7.74 µM (inactive) | 7.46 µM (inactive) | 5.68 µM (inactive)
